Source: PMC3267017, “Design, synthesis and in vitro evaluation of novel bivalent S-adenosylmethionine analogues” (Bioorganic & Medicinal Chemistry Letters, 2012)
Counter-ions that a name gives are not always drawn. Like-named read-outs stand apart in the source and are kept apart here.

Molecular target: MetJ dimer–DNA complex (F-metC) (Escherichia coli, UniProt P0A8U6)
Assay: Fluorescence anisotropy assay: MetJ titrated into F-metC DNA and ligand, MetJ dimer–DNA complex formation
Format: binding
Conditions: for EC50: F-metC 10 nM, read-out: EC50, concentration of MetJ monomer required to promote half-maximal formation of its complex with the F-metC DNA; for Fold-improvement over monovalent control 11: unquaternised bivalent ligand 1 mM vs 11 at 2 mM; for Fold-improvement over monovalent control 4: ligands 2 mM
Description: A fluorescence anisotropy-based binding assay was used to compare the relative ability of SAM analogues to promote MetJ dimer–DNA complex formation. Since SAM has low affinity for MetJ in the absence of DNA,[8,13] measurements were made in the presence of the DNA fragment F-metC, a fluorescently-labeled analogue of the shortest naturally occurring operator sequence, metC.[14] Titration of MetJ into a solution containing fixed concentrations of F-metC and ligand allows the change in anisotropy related to ternary complex formation to be measured (Fig. 5).
Figure 5 Cartoon illustrating the fluorescence anisotropy assay. The SAM molecules promote the formation of a SAM–F-metC–protein complex, with two MetJ dimers bound to the 18 base-pair DNA duplex.
The half-maximal concentration of MetJ, EC50, required to promote complex formation was determined for each ligand. […] The monovalent ligands 11 and 12 (2 mM) and the bivalent ligands 9 and 10 (1 mM) all promoted the formation of the MetJ–DNA complex (Table 1). […] The unquaternised bivalent ligands 9a–e (1 mM) promoted complex formation up to about threefold more effectively than the corresponding monovalent analogue 11. Similarly, the quaternised bivalent ligands 10a and 10b promoted, respectively, complex formation 2.4- and 3.6-fold more effectively than the quaternised monovalent analogue 12.
Analysis of novel SAM analogues binding to MetJ in the presence of operator DNA was carried out using fluorescence anisotropy. Fluorescence anisotropy experiments were performed on a Spex Fluorolog Tau spectrofluorometer (HORIBA Jobin Yvon) controlled by Datamax software. The excitation and emission wavelengths were set to 488 nm and 517 nm respectively. Slit widths were set to 5 nm and all experiments were carried out at 19 °C. The detector integration time was 5 seconds and three readings were taken of each sample to obtain an average anisotropy. Free anisotropy values were 0.051-0.060. Increase in fluorescence anisotropy was observed upon titration of MetJ into a solution of F-metC (10 nM) with and without ligand ([…]) in TK buffer pH 7.6 (50 mM Trizma hydrochloride pH 7.6, 100 mM KCl) with a total starting volume of 200 µL. […] The final DMSO concentration was 2% or less. After each addition, the sample was mixed with a pipette and left to equilibrate for five minutes before the fluorescence anisotropy readings were acquired. The intensity of linear and perpendicular light, compared to the excitation light is measured experimentally and the anisotropy was calculated using the following equation:‖
The data was fitted to a sigmoidal growth logistic model using the following equation: […]
Where A1 refers to the initial value, A2 refers to the final value, x0 refers to the centre and p is a value relating to the slope of the transition. Errors refer the standard deviation of three titration repeats. An arbitrary weighting function with the following equation was employed: […]

[1] = monovalent ligand 2 mM, DMSO 2%, average of three titrations
[2] = bivalent ligand 1 mM, DMSO 2%, average of three titrations
[3] = quaternised ligands 2 mM, average of three titrations
[4] = unquaternised ligands 2 mM, average of three titrations

MetJ dimer–DNA complex (F-metC), sequence (P0A8U6 2-105, one chain of several): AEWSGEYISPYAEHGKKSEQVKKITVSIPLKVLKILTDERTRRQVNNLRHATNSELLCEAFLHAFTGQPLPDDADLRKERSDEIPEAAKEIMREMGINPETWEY

With `C[N+](C)(CC[C@H](N)C(=O)NCc1ccccc1)C[C@H]1O[C@@H](n2cnc3c(N)ncnc32)[C@H](O)[C@@H]1O` [Compound 12, 5′-[{(3′′S)-4′′-Benzylamino-3′′-amino-4′′-oxobutyl}dimethylamino]-5′-deoxyadenosine iodide ditrifluoroacetic acid salt] as the molecule, how does the EC50 [1] read?
The EC50 was 36 ± 6 nM.

`C[N+](C)(CC[C@H](N)C(=O)NCc1ccc(CNC(=O)[C@@H](N)CC[N+](C)(C)C[C@H]2O[C@@H](n3cnc4c(N)ncnc43)[C@H](O)[C@@H]2O)cc1)C[C@H]1O[C@@H](n2cnc3c(N)ncnc32)[C@H](O)[C@@H]1O` [Compound 10a, N,N′-(1,4-Phenylenebismethylene)bis{(2′S)-2′-amino-4′-[5′′-deoxy-5′′-(dimethylamino)-adenosyl]butanamide}iodide tetratrifluoroacetic acid salt] was tested. Which EC50 [2] did it give?
Its EC50 is 15 ± 5 nM.

What does the source list for `CN(CC[C@H](N)C(=O)NCc1cccc(-c2cccc(CNC(=O)[C@@H](N)CCN(C)C[C@H]3O[C@@H](n4cnc5c(N)ncnc54)[C@H](O)[C@@H]3O)c2)c1)C[C@H]1O[C@@H](n2cnc3c(N)ncnc32)[C@H](O)[C@@H]1O` [Compound 9d, N,N′-(Biphenyl-3,3′-diylybismethylene)bis{(2′′S)-2′′-amino-4′′-[5′′′-deoxy-5′′′-(methylamino)-adenosyl]butanamide}]?
EC50 [2]: 75 ± 4 nM; Fold-improvement over monovalent control 11: 1.6-fold

How did the EC50 [3] turn out when `CCCNC(=O)CCC[N+](C)(C)C[C@H]1O[C@@H](n2cnc3c(N)ncnc32)[C@H](O)[C@@H]1O` [Compound 5, reference compound] was run?
Its EC50 is 150 ± 10 nM.

With `CN(CC[C@H](N)C(=O)NCc1cccc(CNC(=O)[C@@H](N)CCN(C)C[C@H]2O[C@@H](n3cnc4c(N)ncnc43)[C@H](O)[C@@H]2O)c1)C[C@H]1O[C@@H](n2cnc3c(N)ncnc32)[C@H](O)[C@@H]1O` [Compound 9b, N,N′-(1,3-Phenylenebismethylene)bis{(2′S)-2′-amino-4′-[5′′-deoxy-5′′-(methylamino)-adenosyl]butanamide}] as the molecule, how does the EC50 [2] read?
Its EC50 is 37 ± 2 nM.

What about the “Fold-improvement over monovalent control 11” value of the same molecule?
Its value is 3.2-fold.

For `CN(CCCC(=O)NCCNC(=O)CCCN(C)C[C@H]1O[C@@H](n2cnc3c(N)ncnc32)[C@H](O)[C@@H]1O)C[C@H]1O[C@@H](n2cnc3c(N)ncnc32)[C@H](O)[C@@H]1O` [Compound 18a, N,N′-Di-[5′-deoxy-5′-N-methyl-N′-(4-butyryl)-adenosine]-1,2-ethylenediamine], which “Fold-improvement over monovalent control 4” value is on record?
Its value is 1.4-fold.

And the EC50 [4]?
Its EC50 is 700 ± 50 nM.

With `CN(CCCC(=O)NCCCCn1nnc2c1CCCCCC2OCCNC(=O)CCCN(C)C[C@H]1O[C@@H](n2cnc3c(N)ncnc32)[C@H](O)[C@@H]1O)C[C@H]1O[C@@H](n2cnc3c(N)ncnc32)[C@H](O)[C@@H]1O` (stereo partly drawn) [Compound 15b, 4-((Adenosyl)(methyl)amino)-N-(2-(1-(4-(4-((adenosyl) (methyl)amino)butanamido)butyl)-4,5,6,7,8,9-hexahydro-1H-cycloocta[d][1,2,3]triazol-4-yloxy)ethyl)butanamide and 4-(-((adenosyl)(methyl)amino)-N-(2-(1-(4-(4-(-((adenosyl)(methyl)amino)butanamido)butyl)-4,5,6,7,8,9-hexahydro-1H-cycloocta[d][1,2,3]triazol-9-yloxy)ethyl)butanamide] as the molecule, how does the EC50 [4] read?
The EC50 was 76 ± 2 nM.

Which “Fold-improvement over monovalent control 5” value (quaternised ligands 2 mM) does the source give for `C[N+](C)(CCCC(=O)NCCCCCCNC(=O)CCC[N+](C)(C)C[C@H]1O[C@@H](n2cnc3c(N)ncnc32)[C@H](O)[C@@H]1O)C[C@H]1O[C@@H](n2cnc3c(N)ncnc32)[C@H](O)[C@@H]1O.[I-].[I-]` [Compound 19d, N,N′-Dimethyl-N,N′-di-[5′-deoxy-5′-N-methyl-N′-(4-butyryl)-adenosine]-1,6-diaminohexane diiodide] here?
The value was 2.9-fold.

What about the EC50 [3] of the same molecule?
The EC50 was 51 ± 2 nM.

Which results are given for `CN(CCCC(=O)NCCCCNC(=O)CCCN(C)C[C@H]1O[C@@H](n2cnc3c(N)ncnc32)[C@H](O)[C@@H]1O)C[C@H]1O[C@@H](n2cnc3c(N)ncnc32)[C@H](O)[C@@H]1O` [Compound 18c, N,N′-Di-[5′-deoxy-5′-N-methyl-N′-(4-butyryl)-adenosine]-1,4-diaminobutane]?
Fold-improvement over monovalent control 4: 4.5-fold; EC50 [4]: 220 ± 20 nM

With `C[S+](CC[C@H](N)C(=O)[O-])C[C@H]1O[C@@H](n2cnc3c(N)ncnc32)[C@H](O)[C@@H]1O` (stereo partly drawn) [SAM, 1, S-Adenosylmethionine] as the molecule, how does the EC50 (SAM, ligand concentration not given, DMSO 2%) read?
The EC50 was 17.3 ± 0.3 nM.

What does the source list for `CN(CCCC(=O)NCCCNC(=O)CCCN(C)C[C@H]1O[C@@H](n2cnc3c(N)ncnc32)[C@H](O)[C@@H]1O)C[C@H]1O[C@@H](n2cnc3c(N)ncnc32)[C@H](O)[C@@H]1O` [Compound 18b, N,N′-Di-[5′-deoxy-5′-N-methyl-N′-(4-butyryl)]-1,3-diaminopropane]?
Fold-improvement over monovalent control 4: 3.1-fold; EC50 [4]: 320 ± 40 nM

For `C[N+](C)(CCCC(=O)NCCCCn1nnc2c1CCCCCC2OCCNC(=O)CCC[N+](C)(C)C[C@H]1O[C@@H](n2cnc3c(N)ncnc32)[C@H](O)[C@@H]1O)C[C@H]1O[C@@H](n2cnc3c(N)ncnc32)[C@H](O)[C@@H]1O.[I-].[I-]` (stereo partly drawn) [Compound 16b, 4-((Adenosyl)(dimethyl)amino)-N-(2-(1-(4-(4-((adenosyl) (dimethyl)amino)butanamido)butyl)-4,5,6,7,8,9-hexahydro-1H-cycloocta[d][1,2,3]triazol-4-yloxy)ethyl)butanamide diiodide and 4-(-((adenosyl)(dimethyl)amino)-N-(2-(1-(4-(4-(-((adenosyl)(dimethyl)amino)butanamido)butyl)-4,5,6,7,8,9-hexahydro-1H-cycloocta[d][1,2,3]triazol-9-yloxy)ethyl)butanamidediiodide], which “Fold-improvement over monovalent control 5” value (quaternised ligands 2 mM) is on record?
Its value is 3.6-fold.

What about the EC50 [3] of the same molecule?
Its EC50 is 42 ± 3 nM.

Which “Fold-improvement over monovalent control 5” value (quaternised ligands 2 mM) does the source give for `C[N+](C)(CCCC(=O)NCCCNC(=O)CCC[N+](C)(C)C[C@H]1O[C@@H](n2cnc3c(N)ncnc32)[C@H](O)[C@@H]1O)C[C@H]1O[C@@H](n2cnc3c(N)ncnc32)[C@H](O)[C@@H]1O.[I-].[I-]` [Compound 19b, N,N′-Dimethyl-N,N′-di-[5′-deoxy-5′-N-methyl-N′-(4-butyryl)-adenosine]-1,3-diaminopropane diiodide] here?
The value was 1.4-fold.

What about the EC50 [3] of the same molecule?
Its EC50 is 108 ± 3 nM.

How did the EC50 [1] turn out when `CN(CC[C@H](N)C(=O)NCc1ccccc1)C[C@H]1O[C@@H](n2cnc3c(N)ncnc32)[C@H](O)[C@@H]1O` [Compound 11, 5′-[{(3′′S)-4′′-Benzylamino-3′′-amino-4′′-oxobutyl}methylamino]-5′-deoxyadenosine] was run?
The EC50 was 120 ± 10 nM.

For `CN(CC[C@H](N)C(=O)NCc1ccccc1-c1ccccc1CNC(=O)[C@@H](N)CCN(C)C[C@H]1O[C@@H](n2cnc3c(N)ncnc32)[C@H](O)[C@@H]1O)C[C@H]1O[C@@H](n2cnc3c(N)ncnc32)[C@H](O)[C@@H]1O` [Compound 9c, N,N′-(Biphenyl-2,2′-diylybismethylene)bis{(2′′S)-2′′-amino-4′′-[5′′′-deoxy-5′′′-(methylamino)-adenosyl]butanamide}], which EC50 [2] is on record?
The EC50 was 39 ± 1 nM.

What about the “Fold-improvement over monovalent control 11” value of the same molecule?
Its value is 3.1-fold.

With `CN(CC[C@H](N)C(=O)NCC#CC#CCNC(=O)[C@@H](N)CCN(C)C[C@H]1O[C@@H](n2cnc3c(N)ncnc32)[C@H](O)[C@@H]1O)C[C@H]1O[C@@H](n2cnc3c(N)ncnc32)[C@H](O)[C@@H]1O` [Compound 9e, N,N′-(Hexa-2,4-diyne-1,6-diyl)bis{(2′S)-2′-amino-4′-[5′′-deoxy-5′′-(methylamino)-adenosyl]butanamide}] as the molecule, how does the EC50 [2] read?
The EC50 was 111 ± 5 nM.

What about the “Fold-improvement over monovalent control 11” value of the same molecule?
The value was 1.1-fold.

With `CN(CCCC(=O)NCCCCCCNC(=O)CCCN(C)C[C@H]1O[C@@H](n2cnc3c(N)ncnc32)[C@H](O)[C@@H]1O)C[C@H]1O[C@@H](n2cnc3c(N)ncnc32)[C@H](O)[C@@H]1O` [Compound 18d, N,N′-Di-[5′-deoxy-5′-N-methyl-N′-(4-butyryl)-adenosine]-1,6-diaminohexane] as the molecule, how does the EC50 [4] read?
The EC50 was 47 ± 1 nM.
